From publication PMC5641551, “Chemical Proteomics for Target Discovery of Head-to-Tail Cyclized Mini-Proteins” (Frontiers in Chemistry, 2017)
No end group written: not given here.

Tested on: 14-3-3 proteins in living Jurkat cells
Experiment: photo-affinity pull down on living Jurkat cells with competitor
Format: binding, human
Settings: 2 h incubation with bait, [T20K]kB1 competitor at 60-fold molar excess, UV irradiation
Experimental: Biotin-LC-LC-labeled (ThermoFisher) peptides (1–5 nmoles) with or without (non-biotinylated) competitor ([…]) for 2 h at 4°C in the presence of protease inhibitors. UV-activation of photo-crosslinking moiety benzophenone was induced by irradiation at 360 nm on ice for 15 min (Stratalinker, Stratagene, CA, United States). Streptavidin-coated magnetic nanobeads 2–4 mg (1–3-fold excess of binding capacity to applied biotin-bait) facilitated the precipitation (Hyglos, Bernried, Germany). The binding could proceed overnight at 4°C. The supernatants were removed and the beads were washed several times, unless stated otherwise and used for SDS-PAGE, unless stated otherwise. For cyclotide experiments the following peptides were used: biotinylated [T20K]kB1 or [T20K,W23Bpa]kB1 as bait and [T20K]kB1, [T20K,W23Bpa]kB1, or R18 ([…]; Sigma Aldrich), a 14-3-3 family specific peptide inhibitor, as competitors. Generally, beads were washed with lysis buffer containing 1% (v/v) Triton-X100 and 0.2% SDS (w/v) and protease inhibitor cocktail for 3 h followed by wash with 0.12 mM phosphate buffered high saline (PBhS) pH 7.4, 1 M NaCl and 12 mM KCl, 1 mM EDTA for 2 h. Lastly, the beads were washed three times for 5 min with lysis buffer. […] Peptide-protein co-precipitations of 14-3-3 proteins and cyclotides were analyzed with GST-tagged 14-3-3β protein (0.25 μg; EnzoLifeSciences, New York, United States). […]

## CGETCVGGTCNTPGCKCSWPVCTRNGLPV (also: bicyclic or more (positions not given here)) [[T20K]kB1, synthetic cyclotide drug candidate, Thr20 to Lys mutant of kalata B1]
  retention of labeled 14-3-3 proteins on affinity beads in presence of competitor: competitively reduced
